Patent US10202412B2, “β-D-2′-deoxy-2′-substituted-4′-substituted-2-substituted-N6-substituted-6-aminopurinenucleotides for the treatment of paramyxovirus and orthomyxovirus infections” (Atea Pharmaceuticals, Inc., priority 2016, dated 2019)
Read-outs that look alike come from different tables or passages of the source.

Columns and labels:
Type in all cases: cell-based
[1] = test system: Respiratory syncytial virus (RSV) type A, strain A2 (ATCC VR-1540); test: dNHBE assay: RSV virus yield reduction (EC90); conditions: human respiratory syncytial virus, RSV (A2) in dNHBE cells; concentration reducing virus yield by 1 log10; mean of at least two experiments
Method: (§1) Differentiated normal human bronchial epithelial (dNHBE) cells were grown on 6 mm mesh disks in transwell inserts to approximately 1.2×10^6 cells/disk and disks were transferred to individual wells of a 6-well plate. 1 mL of proprietary culture medium was added to the basolateral side of the cells and the apical side was exposed to a humidified 95% air/5% CO2 environment. Cells were cultured at 37° C. for one day and then the mucin layer was removed from the apical side of the cells by repeated (3×) washing with 500 μL 30 mM HEPES buffered saline solution and culture medium on the basal side was replenished.
Respiratory syncytial virus (RSV) type A, strain A2 (ATCC VR-1540), previously passaged in MA-104 cells to make working stock cultures, was diluted 1/10 in medium before infection, using a multiplicity of infection (MOI) of ≤0.03 CCID50 per cell.
(§2) Various concentrations of test compounds in medium were applied in duplicate to the apical (140 μL) and basal sides (1 mL) for a 1 hour pre-treatment, followed by addition of 140 μL of virus inoculum to each cell insert on the apical side. The viral inoculum and treatments were removed after 2 hours. Control cells were treated with placebo (culture medium only). Following infection, the apical medium was removed and the basal side was replaced with fresh compound in medium. The cells were maintained at the air-liquid interface, and cell culture medium on the basal side was replaced daily with fresh medium containing test compound. After 4 days, the liquid was removed from the basal side and discarded and virus released into the apical compartment was harvested by the addition of 500 μL of culture medium. The medium was thoroughly mixed, then removed, diluted 1:1 with 40% sucrose and stored at ≤−80° C.
To determine the virus titer from each treated cell culture, MA-104 cells were seeded in 96-well plates and grown overnight (37° C.) to confluence. Samples containing virus were diluted in 10-fold increments in infection medium and 200 μL of each dilution transferred into respective wells of a 96-well microtiter plate. Four microwells were used for each dilution to determine 50% viral endpoints. After 7 days of incubation, each well was scored positive for virus if any cytopathic effect was observed as compared with the uninfected control. The virus dose that was able to infect 50% of the cell cultures (CCID50 per 0.1 mL) was calculated by the Reed-Muench method. This was repeated in duplicate for each test sample, so that values reported are an average of 2 independent CCID5o determinations. Untreated, uninfected cell controls were tested as negative controls. Statistical differences in the titers were evaluated with a one-way analysis of variance (ANOVA) followed by Dunnett's multiple comparisons test compared with the untreated virus controls.
(§3) Concentrations of test compounds that reduced virus yield by 1 log10 (90% effective concentration; EC90) were calculated by regression analysis. The reported EC90 value is the mean of at least two experiments. Potential toxicity of the test compounds was evaluated microscopically.

[2] = test system: Differentiated normal human bronchial epithelial (dNHBE) cells; test: dNHBE assay: toxicity evaluated microscopically; parameters: unit not given here
Method: as §1, §2, §3

[3] = test system: respiratory syncytial virus A2 (ATCC VR-1540); test: Cytopathic effect assay with RSV A2 in MA-104 cells; conditions: human respiratory syncytial virus, MA104, CPE inhibition, neutral red
Method: Test compounds were dissolved in DMSO and then prepared in eight half-log dilutions in MEM medium with 50 μg/mL gentamicin and 2% FBS (MA-104 cells only). Each dilution was added to 5 wells of a 96-well plate with 80-100% confluent cells (either MA-104 cells or HEp-2 cells). Three wells of each dilution were infected with respiratory syncytial virus A2 (ATCC VR-1540) and two wells remained uninfected as toxicity controls. After maximum cytopathic effect (CPE) was observed microscopically in untreated virus control wells, plates were stained with neutral red dye for approximately 2 hours, then supernatant dye was removed and the incorporated dye was extracted in 50:50 Sorensen citrate buffer/ethanol and read on a spectrophotometer. Optical density values were normalized based on cell and virus controls, then the concentration of test compound required to inhibit CPE by 50% (EC50) was calculated by regression analysis. The reported EC50 value is the mean of at least two experiments. The concentration of compound that caused 50% CPE in the absence of virus was similarly calculated to determine cytotoxicity (CC50).

[4] = test system: human bone marrow progenitor cells (BFU-E); test: Human bone marrow progenitor cell assay, BFU-E; conditions: BFU-E-specific culture, 14-day incubation, colony counts, read-out: Bone Marrow Stem Cell IC50 BFU-E
Method: (§4) Select compounds were tested in an in vitro selectivity study with human bone marrow progenitor cells. Fresh human bone marrow progenitor cells (Invitrogen) suspended in either BFU-E or GM-CSF-specific culture medium were added, at 10^5 cells/well, to triplicate serial dilutions of TA in 6-well plates. After 14-day incubations, colony counts were used to determine […] values. BFU-E colonies were confirmed using the benzidene technique. No cytotoxicity was observed from any of the tested compounds.

[5] = test system: human bone marrow progenitor cells (CFU-GM); test: Human bone marrow progenitor cell assay, CFU-GM (GM-CSF-specific culture); conditions: 14-day incubation, colony counts, read-out: Bone Marrow Stem Cell IC50 CFU-GM
Method: as §4

[6] = test system: iPS cardiomyocytes; test: iPS cardiomyocyte assay (XTT viability); conditions: 72 h, 3 days incubation, XTT staining
Method: Select compounds were tested in an in vitro selectivity study with iPS cardiomyocytes. iPS cardiomyocytes (Cellular Dynamics) were seeded in microliter plates at 1.5×10^4 cells per well. After 48-hr incubation, cells were washed and maintenance medium containing 30 serially diluted TA was added in triplicate. After incubating for an additional 3 days, cellviability was measured by staining with XTT and CC50 values were calculated. No cytotoxicity was observed from any of the tested compounds.

Compound	EC90 [1]	Visual toxicity [2]	EC50 [3]	further results
CC[C@]1(COP(=O)(N[C@@H](C)C(=O)OC(C)C)Oc2ccccc2)O[C@@H](n2cnc3c(N(C)C)nc(N)nc32)[C@@H](F)[C@@H]1O (stereo partly drawn) [Compound V, (2S)-Isopropyl 2-(((((2R,3R,4S,5R)-5-(2-amino-6-(dimethylamino)-9H-purin-9-yl)-2-ethyl-4-fluoro-3-hydroxytetrahydrofuran-2-yl)methoxy)(phenoxy)phosphoryl)-amino) propanoate]	44.8 µM	164	> 164 µM	
CC(C)OC(=O)[C@H](C)NP(=O)(OC[C@@]1(CCl)O[C@@H](n2ccc(N)nc2=O)[C@H](F)C1O)Oc1ccccc1 (stereo in doubt) [Z]	2 µM	>177	> 177 µM	
CN(C)c1nc(N)nc2c1ncn2[C@@H]1O[C@](C)(CO)[C@@H](O)[C@@H]1F [Compound S]	> 300 µM	>307	> 306 µM	
CC(C)OC(=O)[C@H](C)NP(=O)(OC[C@@]1(C)O[C@@H](n2cnc3c(N(C)C)nc(N)nc32)[C@H](F)[C@@H]1O)Oc1ccccc1 (stereo partly drawn) [B, (2S)-Isopropyl 2-(((((2R,3R,4R,5R)-5-(2-amino-6-(dimethylamino)-9H-purin-9-yl)-4-fluoro-3-hydroxy-2-methyltetrahydrofuran-2-yl)methoxy)(phenoxy)phosphoryl)-amino) propanoate]	5.9 µM	>167	< 168 µM	
CC(C)C(=O)Nc1nc(N(C)C)c2ncn([C@@H]3O[C@@](CO)(CCl)[C@@H](O)[C@H]3F)c2n1 [X]			> 232 µM	
CNc1nc(N)nc2c1ncn2[C@@H]1O[C@](CCl)(CO[P@@](=O)(N[C@@H](C)C(=O)OC(C)C)Oc2ccccc2)[C@@H](O)[C@H]1F [AI, (S)-Isopropyl 2-(((S)-(((2R,3R,4R,5R)-5-(2-amino-6-(methylamino)-9H-purin-9-yl)-2-(chloromethyl)-4-fluoro-3-hydroxytetrahydrofuran-2-yl)methoxy)(phenoxy)phosphoryl)amino) propanoate]	0.13 µM	>1.6		IC50 ([4]; Homo sapiens, 336 h): > 100 µM; IC50 ([5]; Homo sapiens, CFU-GM, 336 h): > 100 µM; IC50 [6]: > 100 µM
CC[C@]1(CO)O[C@@H](n2cnc3c(N(C)C)nc(N)nc32)[C@@H](F)[C@@H]1O [Compound U, (2R,3R,4S,5R)-5-(2-Amino-6-(dimethylamino)-9H-purin-9-yl)-2-ethyl-4-fluoro-2-(hydroxymethyl)tetrahydrofuran-3-ol]	> 294 µM	>294	> 294 µM	
CC(C)OC(=O)[C@H](C)NP(=O)(OC[C@@]1(CCl)O[C@@H](n2cnc3c(N(C)C)nc(NC(=O)C(C)C)nc32)[C@H](F)[C@@H]1O)Oc1ccccc1 (stereo partly drawn) [Y]			> 142 µM	
CNc1nc(F)nc2c1ncn2[C@@H]1O[C@](C)(CO[P@@](=O)(N[C@@H](C)C(=O)OC(C)C)Oc2ccccc2)[C@@H](O)[C@H]1F [AH, (S)-Isopropyl 2-(((S)-(((2R,3R,4R,5R)-5-(6-(methylamino)-2-fluoro-9H-purin-9-yl)-4-fluoro-3-hydroxy-2-methyltetrahydrofuran-2-yl)methoxy)(phenoxy)phosphoryl)amino) propanoate]	0.12 µM	>1.7		IC50 ([4]; Homo sapiens, 336 h): > 100 µM; IC50 ([5]; Homo sapiens, CFU-GM, 336 h): > 100 µM; IC50 [6]: > 100 µM
CN(C)c1nc(N)nc2c1ncn2[C@@H]1O[C@](C)(CO)[C@@H](O)[C@H]1F [A, (2R,3R,4R,5R)-5-(2-Amino-6-(dimethylamino)-9H-purin-9-yl)-4-fluoro-2-(hydroxymethyl)-2-methyltetrahydrofuran-3-ol]	142 µM	>306	> 306 µM	
COc1cc2nc(N3CCN(C(=O)C4COc5ccccc5O4)CC3)nc(N)c2cc1OC (stereo not drawn) [Doxazosin, reference compound]				IC50 [6]: 12.5 µM
Cc1cn([C@H]2C[C@H](N=[N+]=[N-])[C@@H](CO)O2)c(=O)[nH]c1=O [AZT, reference compound]				IC50 [4]: 2.59 µM; IC50 [5]: 4.56 µM
CNc1nc(N)nc2c1ncn2[C@@H]1O[C@](C)(CO[P@@](=O)(N[C@@H](C)C(=O)OC(C)C)Oc2ccccc2)[C@@H](O)[C@H]1F [Compound AC]	0.074 µM	>1.4		
CC(C)OC(=O)[C@H](C)NP(=O)(OC[C@@]1(CCl)O[C@@H](n2cnc3c(N(C)C)nc(N)nc32)[C@H](F)[C@@H]1O)Oc1ccccc1 (stereo partly drawn) [Compound L, (2S)-Isopropyl 2-(((((2R,3R,4R,5R)-5-(2-amino-6-(dimethylamino)-9H-purin-9-yl)-2-(chloromethyl)-4-fluoro-3-hydroxytetrahydrofuran-2-yl)methoxy)(phenoxy)phosphoryl)amino)propanoate]	13.5 µM	158	> 159 µM	
CC[C@]1(COP(=O)(N[C@@H](C)C(=O)OC(C)C)Oc2ccccc2)O[C@@H](n2cnc3c(NC)nc(N)nc32)[C@H](F)[C@@H]1O (stereo partly drawn) [Compound R, (2S)-Isopropyl 2-(((((2R,3R,4R,5R)-5-(2-amino-6-(methylamino)-9H-purin-9-yl)-2-ethyl-4-fluoro-3-hydroxytetrahydrofuran-2-yl)methoxy)(phenoxy)-phosphoryl)amino) propanoate]	2.3 µM	>167		
CN(C)c1nc(N)nc2c1ncn2[C@@H]1O[C@@](CO)(CCl)[C@@H](O)[C@H]1F [Compound K, (2R,3R,4R,5R)-5-(2-Amino-6-(dimethylamino)-9H-purin-9-yl)-2-(chloromethyl)-4-fluoro-2-(hydroxymethyl)tetrahydrofuran-3-ol]	74.8 µM	>277	> 225 µM	
CNc1nc(N)nc2c1ncn2[C@@H]1O[C@](CCl)(COP(=O)(N[C@@H](C)C(=O)OC(C)C)Oc2ccccc2)[C@@H](O)[C@H]1F (stereo partly drawn) [Compound N, (2S)-Isopropyl 2-(((((2R,3R,4R,5R)-5-(2-amino-6-(methylamino)-9H-purin-9-yl)-2-(chloromethyl)-4-fluoro-3-hydroxytetrahydrofuran-2-yl)methoxy)(phenoxy)-phosphoryl)amino)propanoate]	0.83 µM	>162		
